Reference: patent US12384776B2, “Compounds and uses thereof” (Foghorn Therapeutics Inc., priority 2019, dated 2025)

Target: Nanoluciferase-BRD9 fusion protein (3×FLAG-NLuc-BRD9) in SYO-1 cells (Homo sapiens (Human), UniProt Q9H8M2)
Assay: SYO1 BRD9 NanoLuc degradation assay
Type: cell-based
Conditions: SYO-1 cells expressing 3×FLAG-NLuc-BRD9, 6 hours incubation, top dose 1 μM
Procedure, shortened: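 Stable SYO-1 line expressing 3×FLAG-NLuc-BRD9, treated with 10-point 3-fold dilutions (top 1 μM final) for 6 hours. Nanoluciferase luminescence read with Nano-Glo reagent. % inhibition relative to DMSO (high control) and 1 μM reference BRD9 degrader (low control).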

Nanoluciferase-BRD9 fusion protein (3×FLAG-NLuc-BRD9) in SYO-1 cells, sequence (Q9H8M2 whole entry, the tested form may be a part): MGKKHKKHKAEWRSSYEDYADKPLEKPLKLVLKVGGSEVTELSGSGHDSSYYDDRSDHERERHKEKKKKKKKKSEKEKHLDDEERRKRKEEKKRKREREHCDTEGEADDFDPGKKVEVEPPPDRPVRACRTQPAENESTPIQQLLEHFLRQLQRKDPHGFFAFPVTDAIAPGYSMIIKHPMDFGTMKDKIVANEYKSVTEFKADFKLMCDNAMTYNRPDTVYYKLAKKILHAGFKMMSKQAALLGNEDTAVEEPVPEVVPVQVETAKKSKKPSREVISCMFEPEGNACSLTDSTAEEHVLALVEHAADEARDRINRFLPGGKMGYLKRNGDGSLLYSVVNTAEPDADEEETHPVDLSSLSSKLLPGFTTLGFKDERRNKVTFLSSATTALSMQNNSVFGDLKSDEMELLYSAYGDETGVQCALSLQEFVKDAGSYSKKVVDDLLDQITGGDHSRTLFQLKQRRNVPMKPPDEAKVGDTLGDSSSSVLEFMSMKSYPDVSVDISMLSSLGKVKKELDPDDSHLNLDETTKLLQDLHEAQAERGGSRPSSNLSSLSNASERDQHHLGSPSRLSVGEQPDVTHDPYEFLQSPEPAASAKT

Compound | IC50
CNC(=O)N1CCc2c(-c3cc(OC)c(CN4CC(C(=O)N5CC6(CCN(c7ccc8c(c7)C(=O)N(C7CCC(=O)NC7=O)C8=O)C6)C5)C4)c(OC)c3)cn(C)c(=O)c2C1 (stereo not shown) [Compound D144] | 10 to 100 nM
CNC(=O)N1CCc2c(-c3cc(OC)c(CN4CCC(CCN5CCN(c6ccc7c(c6)C(=O)N(C6CCC(=O)NC6=O)C7=O)CC5)C4)c(OC)c3)cn(C)c(=O)c2C1 (stereo not shown) [Compound D148] | 10 to 100 nM
COc1cc(-c2cn(C)c(=O)c3c2CCN(C(=O)NCCN2CCN(c4ccc5c(c4)C(=O)N(C4CCC(=O)NC4=O)C5=O)CC2)C3)cc(OC)c1CN(C)C (stereo not shown) [Compound D150] | 10 to 100 nM
CNC(=O)N1CCc2c(-c3cc(OC)c(CN4CCC(CCN5C6CC5CN(c5ccc7c(c5)C(=O)N(C5CCC(=O)NC5=O)C7=O)C6)CC4)c(OC)c3)cn(C)c(=O)c2C1 (stereo not shown) [Compound D153] | 10 to 100 nM
CNC(=O)N1CCc2c(-c3cc(OC)c(CN4CC(CN5CC6(CCN(c7ccc8c(c7)C(=O)N(C7CCC(=O)NC7=O)C8=O)C6)C5)C4)c(OC)c3)cn(C)c(=O)c2C1 (stereo not shown) [Compound D167] | 10 to 100 nM
CNC(=O)N1CCc2c(-c3cc(OC)c(CN4CC(CN5CCN(c6ccc7c(c6)C(=O)N(C6CCC(=O)NC6=O)C7=O)CC5)C4)c(OC)c3)cn(C)c(=O)c2C1 (stereo not shown) [Compound D168] | 10 to 100 nM
CNC(=O)N1CCc2c(-c3cc(OC)c(CN4CCC5(CC4)CN(C(=O)CCN4CCN(c6ccc7c(c6)C(=O)N(C6CCC(=O)NC6=O)C7=O)CC4)CCO5)c(OC)c3)cn(C)c(=O)c2C1 (stereo not shown) [Compound D175] | 100 to 1000 nM
CNC(=O)N1CCc2c(-c3cc(OC)c(CN4CC5(CCC(N6Cc7cc8c(cc7C6)C(=O)N(C6CCC(=O)NC6=O)C8=O)CC5)C4)c(OC)c3)cn(C)c(=O)c2C1 (stereo not shown) [Compound D176] | 10 to 100 nM
CNC(=O)N1CCc2c(-c3cc(OC)c(CN4CC5(CC(N6Cc7cc8c(cc7C6)C(=O)N(C6CCC(=O)NC6=O)C8=O)C5)C4)c(OC)c3)cn(C)c(=O)c2C1 (stereo not shown) [Compound D177] | 10 to 100 nM
CNC(=O)N1CCc2c(-c3cc(OC)c(CN4CCC(CCN5Cc6cc7c(cc6C5)C(=O)N(C5CCC(=O)NC5=O)C7=O)CC4)c(OC)c3)cn(C)c(=O)c2C1 (stereo not shown) [Compound D179] | < 10 nM
CNC(=O)N1CCc2c(-c3cc(OC)c(CN4CCC(CN5Cc6cc7c(cc6C5)C(=O)N(C5CCC(=O)NC5=O)C7=O)CC4)c(OC)c3)cn(C)c(=O)c2C1 (stereo not shown) [Compound D180] | < 10 nM
CNC(=O)N1CCc2c(-c3cc(OC)c(CN4CCC5(CCC(N6Cc7cc8c(cc7C6)C(=O)N(C6CCC(=O)NC6=O)C8=O)CC5)CC4)c(OC)c3)cn(C)c(=O)c2C1 (stereo not shown) [Compound D181] | < 10 nM
CNC(=O)N1CCc2c(-c3cc(OC)c(CN4CCC5(CC4)CC(N4Cc6cc7c(cc6C4)C(=O)N(C4CCC(=O)NC4=O)C7=O)C5)c(OC)c3)cn(C)c(=O)c2C1 (stereo not shown) [Compound D182] | < 10 nM
CNC(=O)N1CCc2c(-c3cc(OC)c(CN4CCC5(CC4)CC(Oc4ccc6c(c4)C(=O)N(C4CCC(=O)NC4=O)C6=O)C5)c(OC)c3)cn(C)c(=O)c2C1 (stereo not shown) [Compound D183] | < 10 nM
COc1cc(-c2cn(C)c(=O)c3c2CCN(C(=O)NCCN2CCC4C2CN4c2ccc4c(c2)C(=O)N(C2CCC(=O)NC2=O)C4=O)C3)cc(OC)c1CN(C)C (stereo not shown) [Compound D184] | 10 to 100 nM
COc1cc(-c2cn(C)c(=O)c3c2CCN(C(=O)NCCN2CCC4(CCN4c4ccc5c(c4)C(=O)N(C4CCC(=O)NC4=O)C5=O)C2)C3)cc(OC)c1CN(C)C (stereo not shown) [Compound D185] | 100 to 1000 nM

Other lines, results leading:

IC50 | Compound
< 10 nM | CNC(=O)N1CCc2c(-c3cc(OC)c(CN4CCC(C#Cc5ccc6c(c5)C(=O)N(C5CCC(=O)NC5=O)C6=O)CC4)c(OC)c3)cn(C)c(=O)c2C1 (stereo not shown) [Compound D143]
< 10 nM | CNC(=O)N1CCc2c(-c3cc(OC)c(CN4CCC(CCN5C(C)CN(c6ccc7c(c6)C(=O)N(C6CCC(=O)NC6=O)C7=O)CC5C)CC4)c(OC)c3)cn(C)c(=O)c2C1 (stereo not shown) [Compound D145]
< 10 nM | CNC(=O)N1CCc2c(-c3cc(OC)c(CN4CC5(CC(N6CCN(c7ccc8c(c7)C(=O)N(C7CCC(=O)NC7=O)C8=O)CC6)C5)C4)c(OC)c3)cn(C)c(=O)c2C1 (stereo not shown) [Compound D146]
< 10 nM | CNC(=O)N1CCc2c(-c3cc(OC)c(CN4CCC(F)(CN5CCN(c6ccc7c(c6)C(=O)N(C6CCC(=O)NC6=O)C7=O)CC5)CC4)c(OC)c3)cn(C)c(=O)c2C1 (stereo not shown) [Compound D147]
< 10 nM | CNC(=O)N1CCc2c(-c3cc(OC)c(CN4CCC(CN(C)C5CC(Oc6ccc7c(c6)C(=O)N(C6CCC(=O)NC6=O)C7=O)C5)CC4)c(OC)c3)cn(C)c(=O)c2C1 (stereo not shown) [Compound D149]
< 10 nM | CNC(=O)N1CCc2c(-c3cc(OC)c(CN4CCOC(CCCN5CCN(c6ccc7c(c6)C(=O)N(C6CCC(=O)NC6=O)C7=O)CC5)C4)c(OC)c3)cn(C)c(=O)c2C1 (stereo not shown) [Compound D151]
< 10 nM | CNC(=O)N1CCc2c(-c3cc(OC)c(CN4CCOC(CCN5CCN(c6ccc7c(c6)C(=O)N(C6CCC(=O)NC6=O)C7=O)CC5)C4)c(OC)c3)cn(C)c(=O)c2C1 (stereo not shown) [Compound D152]
< 10 nM | CNC(=O)N1CCc2c(-c3cc(OC)c(CN4CCC(C(F)(F)CN5CCN(c6ccc7c(c6)C(=O)N(C6CCC(=O)NC6=O)C7=O)CC5)CC4)c(OC)c3)cn(C)c(=O)c2C1 (stereo not shown) [Compound D154]
< 10 nM | CNC(=O)N1CCc2c(-c3cc(OC)c(CN4CCC(CCN5CCN(c6ccc7c(c6)C(=O)N(C6CCC(=O)NC6=O)C7=O)CC5)C(F)(F)C4)c(OC)c3)cn(C)c(=O)c2C1 (stereo not shown) [Compound D155]
< 10 nM | CNC(=O)N1CCc2c(-c3cc(OC)c(CNC4CC45CCN(c4ccc6c(c4)C(=O)N(C4CCC(=O)NC4=O)C6=O)C5)c(OC)c3)cn(C)c(=O)c2C1 (stereo not shown) [Compound D156]
< 10 nM | CNC(=O)N1CCc2c(-c3cc(OC)c(CNC4CC5(C4)CN(c4ccc6c(c4)C(=O)N(C4CCC(=O)NC4=O)C6=O)C5)c(OC)c3)cn(C)c(=O)c2C1 (stereo not shown) [Compound D158]
< 10 nM | CNC(=O)N1CCc2c(-c3cc(OC)c(CN4CCC(CN5CCN(c6ccc7c(c6)C(=O)N(C6CCC(=O)NC6=O)C7=O)CC5)C4)c(OC)c3)cn(C)c(=O)c2C1 (stereo not shown) [Compound D169]
< 10 nM | CNC(=O)N1CCc2c(-c3cc(OC)c(CN4CCN(C5CCN(c6ccc7c(c6)C(=O)N(C6CCC(=O)NC6=O)C7=O)CC5)CC4)c(OC)c3)cn(C)c(=O)c2C1 (stereo not shown) [Compound D170]
< 10 nM | CNC(=O)N1CCc2c(-c3cc(OC)c(CN4CCC(CCN(C)C5CN(c6ccc7c(c6)C(=O)N(C6CCC(=O)NC6=O)C7=O)C5)CC4)c(OC)c3)cn(C)c(=O)c2C1 (stereo not shown) [Compound D171]
< 10 nM | CNC(=O)N1CCc2c(-c3cc(OC)c(CN4CCC(CCN5CC6CC5CN6c5ccc6c(c5)C(=O)N(C5CCC(=O)NC5=O)C6=O)CC4)c(OC)c3)cn(C)c(=O)c2C1 (stereo not shown) [Compound D172]
< 10 nM | CNC(=O)N1CCc2c(-c3cc(OC)c(CN4CCC(CCN(C)C5CCCN(c6ccc7c(c6)C(=O)N(C6CCC(=O)NC6=O)C7=O)C5)CC4)c(OC)c3)cn(C)c(=O)c2C1 (stereo not shown) [Compound D173]
< 10 nM | CNC(=O)N1CCc2c(-c3cc(OC)c(CN4CCC(C5(CN6CCN(c7ccc8c(c7)C(=O)N(C7CCC(=O)NC7=O)C8=O)CC6)CC5)CC4)c(OC)c3)cn(C)c(=O)c2C1 (stereo not shown) [Compound D174]
< 10 nM | CNC(=O)N1CCc2c(-c3cc(OC)c(CN4CCC(CCCN5Cc6cc7c(cc6C5)C(=O)N(C5CCC(=O)NC5=O)C7=O)CC4)c(OC)c3)cn(C)c(=O)c2C1 (stereo not shown) [Compound D178]
